Test [1] has as its system HCV GT1a(H77) replicon. The experiment in a line: HCV replicon luciferase reporter assay, genotype 1a. It is filed as cell-based, HCV genotype 1a. Conditions: Hepatitis C virus, 72 h, HUH-7 cells, Renilla luciferase, 3 days incubation. In short, it runs like this: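 Huh-7 cells stably carried a GT1a(H77) Renilla luciferase replicon with NS3 P1496L and NS5A S2204I adaptive mutations. Luminescence was read after 2 h with 7.5 μM EnduRen, and EC50 came from a four-parameter logistic fit; CC50 came from multiplexed Cell Titer-Blue (8 h).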

The test system of test [2] is HCV GT1b(Con1) replicon. The experiment in a line: HCV replicon luciferase reporter assay, genotype 1b. The format is cell-based, HCV genotype 1b. As to conditions: Hepatitis C virus, 72 h, HUH-7 cells, Renilla luciferase, 3 days incubation. In short, it runs like this:
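HUH-7 cells stably carrying a Con1 GT1b replicon with Renilla luciferase and Ser1179Ile adaptive mutation; 3.0×10^3 cells/well, DMEM 4% FCS, 0.5% DMSO, twenty-point 3-fold titration, 3 days 37 °C. Luminescence 2 h after 7.5 μM EnduRen; EC50 by four-parameter logistic fit. CC50 from multiplexed Cell Titer-Blue fluorescence (8 h).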

Where two headings read alike, the source gives them in different places.

Regarding `CC(C)Oc1ccc(-c2cc(O[C@@H]3C[C@H]4C(=O)N[C@]5(C(=O)NS(=O)(=O)C6(C)CC6)C[C@H]5/C=C\CC[C@@H](C)C[C@@H](C)[C@H](NC(=O)OC(C)(C)C(F)(F)F)C(=O)N4C3)cc(-c3ccccn3)n2)cc1` [Compound 1021, 1,1,1-trifluoro-2-methylpropan-2-yl ((2R,6S,7R,9R,13aS,14aR,16aS,Z)-2-((6-(4-isopropoxyphenyl)-[2,2′-bipyridin]-4-yl)oxy)-7,9-dimethyl-14a-(((1-methylcyclopropyl)sulfonyl)carbamoyl)-5,16-dioxo-1,2,3,5,6,7,8,9,10,11,13a,14,14a,15,16,16a-hexadecahydrocyclopropa[e]pyrrolo[1,2-a][1,4]diazacyclopentadecin-6-yl)carbamate], the EC50 in test [1] (read-out: LE_1a (EC50, range)) is 1.01 to 5 nM; in test [2] (read-out: LE_1b (EC50, range)) it was 0.51 to 1 nM.
In the same order, the values of `CC(C)Oc1ccc(-c2cc(O[C@@H]3C[C@H]4C(=O)N[C@]5(C(=O)NS(=O)(=O)C6(C)CC6)C[C@H]5/C=C\CC[C@H](C)C[C@@H](C)[C@H](NC(=O)OC(C)(C)C(F)(F)F)C(=O)N4C3)cc(-c3ccccn3)n2)cc1` [Compound 1022, 1,1,1-trifluoro-2-methylpropan-2-yl ((2R,6S,7R,9S,13aS,14aR,16aS,Z)-2-((6-(4-isopropoxyphenyl)-[2,2′-bipyridin]-4-yl)oxy)-7,9-dimethyl-14a-(((1-methylcyclopropyl)sulfonyl)carbamoyl)-5,16-dioxo-1,2,3,5,6,7,8,9,10,11,13a,14,14a,15,16,16a-hexadecahydrocyclopropa[e]pyrrolo[1,2-a][1,4]diazacyclopentadecin-6-yl)carbamate] are 5.01 to 35 nM and 1.01 to 5 nM.
With `C[C@@H]1CC/C=C\[C@@H]2C[C@@]2(C(=O)NS(=O)(=O)C2(C)CC2)NC(=O)[C@@H]2C[C@@H](Oc3cc(-c4nccs4)nc(-c4nccs4)c3)CN2C(=O)[C@@H](NC(=O)OC(C)(C)C(F)(F)F)[C@H](C)C1` [Compound 1023, 1,1,1-trifluoro-2-methylpropan-2-yl ((2R,6S,7R,9R,13aS,14aR,16aS,Z)-2-((2,6-di(thiazol-2-yl)pyridin-4-yl)oxy)-7,9-dimethyl-14a-(((1-methylcyclopropyl)sulfonyl)carbamoyl)-5,16-dioxo-1,2,3,5,6,7,8,9,10,11,13a,14,14a,15,16,16a-hexadecahydrocyclopropa[e]pyrrolo[1,2-a][1,4]diazacyclopentadecin-6-yl)carbamate], the EC50 in test [1] (read-out: LE_1a (EC50)) is 0.46 nM; in test [1] (read-out: LE_1a (EC50, range)), 0.1 to 0.5 nM; in test [2] (read-out: LE_1b (EC50)) it was 0.4 nM; in test [2] (read-out: LE_1b (EC50, range)), 0.1 to 0.5 nM.
For `C[C@H]1CC/C=C\[C@@H]2C[C@@]2(C(=O)NS(=O)(=O)C2(C)CC2)NC(=O)[C@@H]2C[C@@H](Oc3cc(-c4nccs4)nc(-c4nccs4)c3)CN2C(=O)[C@@H](NC(=O)OC(C)(C)C(F)(F)F)[C@H](C)C1` [Compound 1024, 1,1,1-trifluoro-2-methylpropan-2-yl ((2R,6S,7R,9S,13aS,14aR,16aS,Z)-2-((2,6-di(thiazol-2-yl)pyridin-4-yl)oxy)-7,9-dimethyl-14a-(((1-methylcyclopropyl)sulfonyl)carbamoyl)-5,16-dioxo-1,2,3,5,6,7,8,9,10,11,13a,14,14a,15,16,16a-hexadecahydrocyclopropa[e]pyrrolo[1,2-a][1,4]diazacyclopentadecin-6-yl)carbamate], the EC50 in test [1] (read-out: LE_1a (EC50, range)) fell in the range of 1.01 to 5 nM; in test [2] (read-out: LE_1b (EC50, range)) it was 0.51 to 1 nM.
Turning to `C[C@@H]1CC/C=C\[C@@H]2C[C@@]2(C(=O)NS(=O)(=O)C2(C)CC2)NC(=O)[C@@H]2C[C@@H](Oc3ccnc(-c4nccs4)c3)CN2C(=O)[C@@H](NC(=O)OC(C)(C)C(F)(F)F)[C@H](C)C1` [Compound 1025, 1,1,1-trifluoro-2-methylpropan-2-yl ((2R,6S,7R,9R,13aS,14aR,16aS,Z)-7,9-dimethyl-14a-(((1-methylcyclopropyl)sulfonyl)carbamoyl)-5,16-dioxo-2-((2-(thiazol-2-yl)pyridin-4-yl)oxy)-1,2,3,5,6,7,8,9,10,11,13a,14,14a,15,16,16a-hexadecahydrocyclopropa[e]pyrrolo[1,2-a][1,4]diazacyclopentadecin-6-yl)carbamate], the EC50 is 1.01 to 5 nM in test [1] (read-out: LE_1a (EC50, range)) and 0.51 to 1 nM in test [2] (read-out: LE_1b (EC50, range)).
Consider `C[C@@H]1CC/C=C\[C@@H]2C[C@@]2(C(=O)NS(=O)(=O)C2CC2)NC(=O)[C@@H]2C[C@@H](Oc3cc(Cl)ccn3)CN2C(=O)[C@@H](NC(=O)OC(C)(C)C(F)(F)F)[C@H](C)C1` [Compound 1026, 1,1,1-trifluoro-2-methylpropan-2-yl ((2R,6S,7R,9R,13aS,14aR,16aS,Z)-2-((4-chloropyridin-2-yl)oxy)-14a-((cyclopropylsulfonyl)carbamoyl)-7,9-dimethyl-5,16-dioxo-1,2,3,5,6,7,8,9,10,11,13a,14,14a,15,16,16a-hexadecahydrocyclopropa[e]pyrrolo[1,2-a][1,4]diazacyclopentadecin-6-yl)carbamate], for which the EC50 in test [1] (read-out: LE_1a (EC50, range)) lay in the range of 5.01 to 35 nM; in test [2] (read-out: LE_1b (EC50, range)) it was 5.01 to 35 nM.
Consider `CC(C)Oc1ccc(-c2cc(Cl)cc(O[C@@H]3C[C@H]4C(=O)N[C@]5(C(=O)NS(=O)(=O)C6(C)CC6)C[C@H]5/C=C\CC[C@@H](C)C[C@@H](C)[C@H](NC(=O)OC(C)(C)C(F)(F)F)C(=O)N4C3)n2)cc1` [Compound 1027, 1,1,1-trifluoro-2-methylpropan-2-yl ((2R,6S,7R,9R,13aS,14aR,16aS,Z)-2-((4-chloro-6-(4-isopropoxyphenyl)pyridin-2-yl)oxy)-7,9-dimethyl-14a-(((1-methylcyclopropyl)sulfonyl)carbamoyl)-5,16-dioxo-1,2,3,5,6,7,8,9,10,11,13a,14,14a,15,16,16a-hexadecahydrocyclopropa[e]pyrrolo[1,2-a][1,4]diazacyclopentadecin-6-yl)carbamate], for which the EC50 lay within 1.01 to 5 nM in test [1] (read-out: LE_1a (EC50, range)) and 1.01 to 5 nM in test [2] (read-out: LE_1b (EC50, range)).
For `CC(C)Oc1ccc(-c2cc(Cl)cc(O[C@@H]3C[C@H]4C(=O)N[C@]5(C(=O)NS(=O)(=O)C6(C)CC6)C[C@H]5/C=C\CC[C@H](C)C[C@@H](C)[C@H](NC(=O)OC(C)(C)C(F)(F)F)C(=O)N4C3)n2)cc1` [Compound 1028, 1,1,1-trifluoro-2-methylpropan-2-yl ((2R,6S,7R,9S,13aS,14aR,16aS,Z)-2-((4-chloro-6-(4-isopropoxyphenyl)pyridin-2-yl)oxy)-7,9-dimethyl-14a-(((1-methylcyclopropyl)sulfonyl)carbamoyl)-5,16-dioxo-1,2,3,5,6,7,8,9,10,11,13a,14,14a,15,16,16a-hexadecahydrocyclopropa[e]pyrrolo[1,2-a][1,4]diazacyclopentadecin-6-yl)carbamate], the EC50 was 35 to 359 nM in test [1] (read-out: LE_1a (EC50, range)) and 35 to 359 nM in test [2] (read-out: LE_1b (EC50, range)).
Regarding `CC(C)Oc1ccc(-c2cc(Cl)cc(O[C@@H]3C[C@H]4C(=O)N[C@]5(C(=O)NS(=O)(=O)C6(C)CC6)C[C@H]5/C=C\CC[C@@H](C)C[C@@H](C)[C@H](NC(=O)OC(C)(C)C)C(=O)N4C3)n2)cc1` [Compound 1029, tert-butyl ((2R,6S,7R,9R,13aS,14aR,16aS,Z)-2-((4-chloro-6-(4-isopropoxyphenyl)pyridin-2-yl)oxy)-7,9-dimethyl-14a-(((1-methylcyclopropyl)sulfonyl)carbamoyl)-5,16-dioxo-1,2,3,5,6,7,8,9,10,11,13a,14,14a,15,16,16a-hexadecahydrocyclopropa[e]pyrrolo[1,2-a][1,4]diazacyclopentadecin-6-yl)carbamate], the 50% effective concentration (EC50) in test [1] (read-out: LE_1a (EC50, range)) was in the range of 1.01 to 5 nM; in test [2] (read-out: LE_1b (EC50, range)), 1.01 to 5 nM.

The record behind these values is patent US9334279B2, “Hepatitis C virus inhibitors” (BRISTOL-MYERS SQUIBB COMPANY, priority 2012, dated 2016).
